# In PMC5593877, “Identification of endoxylanase XynE from Clostridium thermocellum as the first xylanase of glycoside hydrolase family GH141” (Scientific Reports, 2017):
# Biological target: T1, Xyn141E (Acetivibrio thermocellus, UniProt A3DHG8)
# T1 construct: gene Cthe_2195
# Assay: HPAEC-PAD of hydrolysis products
# Assay type: biochemical
# Conditions: 200 µg/mL substrate, 100 µg/mL enzyme, 10 mM MOPS pH 6.5, 50 mM NaCl, 10 mM CaCl2, 60 °C, 16 h
# T1 sequence (A3DHG8 entry or part of it): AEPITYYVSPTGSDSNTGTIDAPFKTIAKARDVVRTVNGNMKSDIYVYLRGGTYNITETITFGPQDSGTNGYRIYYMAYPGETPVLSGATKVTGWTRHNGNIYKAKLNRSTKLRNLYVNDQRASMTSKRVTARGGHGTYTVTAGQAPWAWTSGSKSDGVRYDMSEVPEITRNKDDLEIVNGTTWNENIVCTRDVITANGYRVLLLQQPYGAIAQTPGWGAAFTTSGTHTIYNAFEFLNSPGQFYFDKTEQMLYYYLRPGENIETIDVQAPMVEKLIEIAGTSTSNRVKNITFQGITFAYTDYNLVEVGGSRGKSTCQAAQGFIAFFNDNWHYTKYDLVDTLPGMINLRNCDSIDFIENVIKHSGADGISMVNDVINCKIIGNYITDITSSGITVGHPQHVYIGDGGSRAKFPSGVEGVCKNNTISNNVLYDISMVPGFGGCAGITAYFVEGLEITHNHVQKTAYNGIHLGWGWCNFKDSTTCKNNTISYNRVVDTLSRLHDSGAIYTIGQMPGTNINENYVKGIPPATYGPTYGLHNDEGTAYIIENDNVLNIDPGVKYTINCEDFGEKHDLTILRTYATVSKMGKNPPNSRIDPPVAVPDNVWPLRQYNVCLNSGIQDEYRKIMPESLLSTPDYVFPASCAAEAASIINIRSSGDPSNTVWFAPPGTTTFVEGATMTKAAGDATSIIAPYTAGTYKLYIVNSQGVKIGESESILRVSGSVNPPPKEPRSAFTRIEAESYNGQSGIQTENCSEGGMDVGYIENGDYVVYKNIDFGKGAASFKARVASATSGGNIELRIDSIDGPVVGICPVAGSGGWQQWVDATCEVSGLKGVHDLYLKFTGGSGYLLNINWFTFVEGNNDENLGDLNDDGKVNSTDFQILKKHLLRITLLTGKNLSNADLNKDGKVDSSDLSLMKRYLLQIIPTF
row,SMILES,HPAEC-PAD of hydrolysis products
1,"OC1OC[C@@H](O[C@@H]2OC[C@@H](O[C@@H]3OC[C@@H](O[C@@H]4OC[C@@H](O)[C@H](O)[C@H]4O)[C@H](O)[C@H]3O)[C@H](O)[C@H]2O)[C@H](O)[C@H]1O (some centres unmarked) [X4, xylotetraose]","Xyn141E was able to hydrolyse X5 and X4 to X2 and X3 or X2, respectively."
2,"OC1OC[C@@H](O[C@@H]2OC[C@@H](O[C@@H]3OC[C@@H](O[C@@H]4OC[C@@H](O[C@@H]5OC[C@@H](O)[C@H](O)[C@H]5O)[C@H](O)[C@H]4O)[C@H](O)[C@H]3O)[C@H](O)[C@H]2O)[C@H](O)[C@H]1O (some centres unmarked) [X5, xylopentaose]","Xyn141E was able to hydrolyse X5 and X4 to X2 and X3 or X2, respectively."
